ChEMBL document CHEMBL1201862, “PubChem BioAssay data set” (2004)
“And” between values parts separate entries of the source, which are not always exact repeats. Identical values can stand only once. The source made the active and inactive calls.

Legend:
[1] = target: T1, Short transient receptor potential channel 4 (Mus musculus, UniProt Q9QUQ5); test: block of DAMGO-driven TRPC4 calcium entry – cell-based, HEK293 TRPC4/mu-opioid, Fluo-4 calcium, dose response (AID 434942); assay type: functional;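 further: potency of inhibitors blocking the TRPC4 calcium response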
T1 sequence (Q9QUQ5 whole entry): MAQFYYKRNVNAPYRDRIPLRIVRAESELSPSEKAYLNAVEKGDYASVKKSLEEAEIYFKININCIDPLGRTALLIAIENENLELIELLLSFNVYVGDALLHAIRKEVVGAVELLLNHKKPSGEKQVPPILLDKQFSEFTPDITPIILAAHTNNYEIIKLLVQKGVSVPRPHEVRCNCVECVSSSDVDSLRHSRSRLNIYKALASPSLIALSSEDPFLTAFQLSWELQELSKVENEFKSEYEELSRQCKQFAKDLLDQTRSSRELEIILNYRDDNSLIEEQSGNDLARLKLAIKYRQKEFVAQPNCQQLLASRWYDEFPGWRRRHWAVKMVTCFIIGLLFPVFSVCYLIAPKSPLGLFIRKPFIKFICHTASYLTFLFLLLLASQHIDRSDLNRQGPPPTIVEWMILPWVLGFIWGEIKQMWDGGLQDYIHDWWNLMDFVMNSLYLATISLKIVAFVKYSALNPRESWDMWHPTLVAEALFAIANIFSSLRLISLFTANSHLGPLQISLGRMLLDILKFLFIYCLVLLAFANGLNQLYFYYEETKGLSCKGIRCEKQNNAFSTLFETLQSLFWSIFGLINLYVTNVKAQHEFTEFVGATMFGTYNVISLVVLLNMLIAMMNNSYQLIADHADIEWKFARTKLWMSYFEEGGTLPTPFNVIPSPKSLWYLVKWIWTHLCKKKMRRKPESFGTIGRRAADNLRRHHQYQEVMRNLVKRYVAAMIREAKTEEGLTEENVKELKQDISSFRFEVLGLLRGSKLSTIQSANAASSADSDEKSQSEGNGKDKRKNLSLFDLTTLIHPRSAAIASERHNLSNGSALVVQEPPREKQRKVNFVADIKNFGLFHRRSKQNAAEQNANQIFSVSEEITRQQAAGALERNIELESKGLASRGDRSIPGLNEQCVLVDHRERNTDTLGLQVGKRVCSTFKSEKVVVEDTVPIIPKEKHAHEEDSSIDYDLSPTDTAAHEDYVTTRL

[2] = target: Cytochrome P450 2D6 (Homo sapiens, UniProt P10635);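 further: CYP2D6 member of a cytochrome P450 panel assay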
[3] = target: T2, Protein skinhead-1 (Caenorhabditis elegans, UniProt P34707); assay type: functional
T2 sequence (P34707 whole entry): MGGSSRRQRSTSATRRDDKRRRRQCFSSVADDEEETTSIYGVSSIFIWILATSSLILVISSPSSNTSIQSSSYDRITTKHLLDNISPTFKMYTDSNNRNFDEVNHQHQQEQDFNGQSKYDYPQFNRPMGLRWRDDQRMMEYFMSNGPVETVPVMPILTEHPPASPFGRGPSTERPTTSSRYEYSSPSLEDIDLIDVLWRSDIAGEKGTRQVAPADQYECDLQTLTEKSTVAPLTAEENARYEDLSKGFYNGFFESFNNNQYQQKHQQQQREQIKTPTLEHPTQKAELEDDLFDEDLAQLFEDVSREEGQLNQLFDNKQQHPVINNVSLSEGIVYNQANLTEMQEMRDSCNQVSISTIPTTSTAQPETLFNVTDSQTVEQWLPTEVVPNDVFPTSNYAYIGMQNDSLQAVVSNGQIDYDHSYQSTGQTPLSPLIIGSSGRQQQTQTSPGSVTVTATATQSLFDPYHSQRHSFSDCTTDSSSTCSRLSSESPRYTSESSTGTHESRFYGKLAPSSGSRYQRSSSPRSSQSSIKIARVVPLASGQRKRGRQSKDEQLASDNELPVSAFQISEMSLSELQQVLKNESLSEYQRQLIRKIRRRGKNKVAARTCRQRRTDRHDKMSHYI

[4] = Trypanosoma cruzi growth suppression in host cells – NIH3T3 host cells, beta-gal luminescence, confirmation (AID 2044); assay type: functional, cell-based;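 further: intracellular parasites grown in NIH/3T3 mouse fibroblasts as host cells; luminescent beta-galactosidase reporter signal from transgenic T. cruzi replicating inside host cells; inhibitors lower the luminescence signal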
[5] = NIH3T3 cell viability loss – ATP luminescence, mouse fibroblasts, counter-screen, dose response (AID 2010); assay type: functional, cell-based;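 further: cells exposed to compound for about 90 hours before reading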
[6] = fluconazole-exposed Candida albicans growth modulators – fluorescence, retest, confirmation (AID 2467); assay type: functional, cell-based
[7] = NIH-3T3 fibroblast cytotoxicity, dose response, cytotoxicity control, cell-based, fluorescence, Alamar Blue, secondary assay (AID 2327); assay type: functional;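 further: NIH-3T3 mouse fibroblasts cultured with fluconazole at 8 µg/mL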
[8] = target: T3, Cytochrome P450 1A2 (Homo sapiens, UniProt P05177);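 further: PubChem cytochrome P450 panel assay, CYP1A2 panel member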
T3 sequence (P05177 whole entry): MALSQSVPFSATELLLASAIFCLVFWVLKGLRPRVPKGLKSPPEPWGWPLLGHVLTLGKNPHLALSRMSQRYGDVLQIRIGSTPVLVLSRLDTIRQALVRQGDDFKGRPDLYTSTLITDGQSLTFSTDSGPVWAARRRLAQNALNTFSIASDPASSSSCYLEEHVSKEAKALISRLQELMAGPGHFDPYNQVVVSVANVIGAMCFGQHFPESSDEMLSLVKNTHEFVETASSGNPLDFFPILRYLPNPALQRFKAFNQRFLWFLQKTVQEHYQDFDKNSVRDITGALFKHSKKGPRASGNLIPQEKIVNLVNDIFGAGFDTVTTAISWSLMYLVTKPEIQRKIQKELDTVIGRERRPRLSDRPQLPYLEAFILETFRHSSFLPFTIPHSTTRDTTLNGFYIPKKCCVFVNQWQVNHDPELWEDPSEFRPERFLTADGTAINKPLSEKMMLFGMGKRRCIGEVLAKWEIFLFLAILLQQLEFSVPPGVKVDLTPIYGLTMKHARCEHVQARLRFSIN

[9] = target: Cytochrome P450 2C9 (Homo sapiens, UniProt P11712)
[10] = target: Cytochrome P450 2C19 (Homo sapiens, UniProt P33261); test: Cytochrome panel assay with activity outcomes. Panel member name: p450-cyp2c19 Compounds with AC50 equal or less than 10 uM are considered active; assay type: functional; conditions: read-out: AC50
[11] = target: Cytochrome P450 3A4 (Homo sapiens, UniProt P08684);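 further: CYP3A4 tested as one member of a cytochrome P450 panel screen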
[12] = target: T4, Heat shock factor protein 1 (Mus musculus, UniProt P38532); test: enhancement of HSF1-driven luciferase signal – cell-based, NIH3T3, luminescence, dose retest, confirmation (AID 435004); assay type: functional;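 further: stress induced by proteasome inhibitor MG132 added 30 min after compound; luciferase reporter driven by HSF1 response element in NIH3T3 cells; actives raise luminescence as potentiators of the MG132 stress response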
T4 sequence (P38532 whole entry): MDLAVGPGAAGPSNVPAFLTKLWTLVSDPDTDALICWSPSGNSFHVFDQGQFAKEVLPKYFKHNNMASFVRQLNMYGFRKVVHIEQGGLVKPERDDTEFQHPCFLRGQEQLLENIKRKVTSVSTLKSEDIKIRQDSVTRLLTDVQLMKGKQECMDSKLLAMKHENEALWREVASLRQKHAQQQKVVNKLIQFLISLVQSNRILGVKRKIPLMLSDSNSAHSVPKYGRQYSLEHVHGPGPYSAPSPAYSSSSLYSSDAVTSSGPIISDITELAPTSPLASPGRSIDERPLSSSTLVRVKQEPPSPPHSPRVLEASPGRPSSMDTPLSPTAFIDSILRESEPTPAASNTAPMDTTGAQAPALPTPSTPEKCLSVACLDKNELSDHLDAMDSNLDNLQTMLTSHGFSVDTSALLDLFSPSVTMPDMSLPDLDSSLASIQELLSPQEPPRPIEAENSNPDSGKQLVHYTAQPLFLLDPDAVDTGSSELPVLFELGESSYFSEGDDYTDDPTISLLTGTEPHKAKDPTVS

Sequence of Cytochrome P450 2C9 (P11712 whole entry): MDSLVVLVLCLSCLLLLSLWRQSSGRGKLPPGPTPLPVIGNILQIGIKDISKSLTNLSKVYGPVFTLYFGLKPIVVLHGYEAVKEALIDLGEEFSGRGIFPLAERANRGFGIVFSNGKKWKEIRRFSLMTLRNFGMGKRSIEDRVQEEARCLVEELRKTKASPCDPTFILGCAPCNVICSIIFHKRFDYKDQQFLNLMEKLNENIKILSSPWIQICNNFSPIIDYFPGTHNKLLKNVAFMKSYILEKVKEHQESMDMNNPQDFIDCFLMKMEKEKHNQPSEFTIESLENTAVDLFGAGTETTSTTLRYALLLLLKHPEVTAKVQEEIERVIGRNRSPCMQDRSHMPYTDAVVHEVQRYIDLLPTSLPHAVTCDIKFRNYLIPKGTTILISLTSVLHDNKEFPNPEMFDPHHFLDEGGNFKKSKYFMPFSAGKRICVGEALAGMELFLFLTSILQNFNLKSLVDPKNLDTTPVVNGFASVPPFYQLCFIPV
Sequence of Cytochrome P450 2D6 (P10635 whole entry): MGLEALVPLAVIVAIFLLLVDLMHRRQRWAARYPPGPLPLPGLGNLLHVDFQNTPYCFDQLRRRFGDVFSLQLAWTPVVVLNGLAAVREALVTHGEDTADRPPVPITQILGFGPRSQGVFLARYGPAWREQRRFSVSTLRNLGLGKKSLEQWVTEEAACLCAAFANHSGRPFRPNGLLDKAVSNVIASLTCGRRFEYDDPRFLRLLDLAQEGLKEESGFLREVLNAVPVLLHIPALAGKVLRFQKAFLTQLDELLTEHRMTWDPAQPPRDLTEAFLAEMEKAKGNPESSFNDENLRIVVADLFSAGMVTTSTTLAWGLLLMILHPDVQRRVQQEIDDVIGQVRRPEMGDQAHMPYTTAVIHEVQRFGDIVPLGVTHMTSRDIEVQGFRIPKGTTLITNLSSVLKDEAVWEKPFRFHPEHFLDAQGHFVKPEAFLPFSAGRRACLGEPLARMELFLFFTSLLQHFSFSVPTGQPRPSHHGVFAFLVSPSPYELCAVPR
Sequence of Cytochrome P450 3A4 (P08684 whole entry): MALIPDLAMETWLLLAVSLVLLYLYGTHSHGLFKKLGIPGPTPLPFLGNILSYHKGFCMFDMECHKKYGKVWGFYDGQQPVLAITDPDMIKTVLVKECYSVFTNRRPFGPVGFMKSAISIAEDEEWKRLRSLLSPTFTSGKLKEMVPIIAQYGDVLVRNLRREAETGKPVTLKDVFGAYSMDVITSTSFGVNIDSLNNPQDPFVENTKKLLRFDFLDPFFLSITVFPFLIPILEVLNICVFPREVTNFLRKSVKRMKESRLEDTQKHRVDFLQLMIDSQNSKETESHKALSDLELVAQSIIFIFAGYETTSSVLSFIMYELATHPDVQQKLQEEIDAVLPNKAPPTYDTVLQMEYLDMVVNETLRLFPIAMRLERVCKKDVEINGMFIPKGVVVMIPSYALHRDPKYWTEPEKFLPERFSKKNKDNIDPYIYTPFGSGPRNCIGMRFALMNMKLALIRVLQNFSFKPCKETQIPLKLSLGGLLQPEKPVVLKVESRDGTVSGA
Sequence of Cytochrome P450 2C19 (P33261 whole entry): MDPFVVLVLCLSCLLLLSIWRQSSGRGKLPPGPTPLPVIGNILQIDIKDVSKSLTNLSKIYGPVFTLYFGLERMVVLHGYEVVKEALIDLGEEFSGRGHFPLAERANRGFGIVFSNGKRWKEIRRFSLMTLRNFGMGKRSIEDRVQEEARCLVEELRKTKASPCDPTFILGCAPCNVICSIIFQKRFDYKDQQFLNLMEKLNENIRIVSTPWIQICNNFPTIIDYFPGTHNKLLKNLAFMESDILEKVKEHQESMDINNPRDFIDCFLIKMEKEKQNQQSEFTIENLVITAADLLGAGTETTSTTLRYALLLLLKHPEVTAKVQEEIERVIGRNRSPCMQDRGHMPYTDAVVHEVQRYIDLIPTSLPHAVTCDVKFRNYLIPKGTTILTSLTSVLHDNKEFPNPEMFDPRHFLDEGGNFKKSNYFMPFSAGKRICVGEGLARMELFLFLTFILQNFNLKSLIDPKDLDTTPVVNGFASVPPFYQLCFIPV

## Cc1ccc(C[n+]2cc(-c3ccc(Cl)cc3)n3c2CCC3)cc1
[1]
  EC50: 2.37 µM (active)

## CN(C)c1nccc(N(Cc2ccccc2)Cc2ccccc2)c1C#N
[2]
  AC50: 10 µM (inconclusive)

## O=C(c1ccncc1)N1CCC2(CC1)CN(Cc1cc(C(F)(F)F)cc(C(F)(F)F)c1)C2
[2]
  AC50: 31.6 µM (inconclusive)

## O=C(Nc1ccc2c(c1)CN(C(=O)Nc1ccc(F)cc1)CC2)c1ccccn1
[3]
  IC50: > 100 µM (inactive)

## CCOC(=O)C1CCN(C2CCN(C(=O)c3oc4c(C)c(C)ccc4c3C)CC2)CC1
[1]
  EC50: 4.22 µM (active)

## O=c1cc(N2CCCCC2)c(-c2ccccc2)nn1Cc1ccccc1Cl
[2]
  AC50: 28.2 µM (inconclusive)

## COCCn1c(SCc2ccc(OC)c(F)c2)nc2ccccc2c1=O
[4]
  EC50: 2.24 µM (active)
[1]
  EC50: 2.99 µM (active)
[5]
  EC50: 31.8 µM (active)

## CCC(C)(C)NC(=O)C(c1cccn1C)N(C(=O)Cn1nnc2ccccc21)c1ccc(OC)cc1OC (configuration not stated)
[3]
  IC50: > 100 µM (inactive)

## Fc1ccccc1N=C(S)NN(Cc1ccccc1)c1ccccc1
[3]
  IC50: > 100 µM (inactive)

## CC12CCC(C(=O)NNc3ccc([N+](=O)[O-])cc3)(CC1=O)C2(C)C (configuration not stated)
[6]
  EC50: > 38 µM (not active)
[7]
  EC50: > 150 µM (inconclusive)

## CN1CC[C@]2(C)c3cc(O)ccc3N(C)[C@@H]12
[8]
  AC50: 15.8 µM (inconclusive) and 31.6 µM (inconclusive)
[9]
  AC50: 12.6 µM (inconclusive)
[2]
  AC50: 31.6 µM (inconclusive) and 12.6 µM (inconclusive)

## CC(=O)Nc1ccc(-c2nnc(SCC(=O)c3ccc4c(c3)Cc3ccccc3-4)n2C)cc1
[10]
  AC50: 6.31 µM (inconclusive)
[2]
  AC50: 14.1 µM (inconclusive)

## CC(NS(=O)(=O)c1ccc(OCC(=O)N2CCOCC2)c(Cl)c1)c1ccccc1 (configuration not stated)
[3]
  IC50: > 100 µM (inactive)

## O=C(Nc1ccccc1)c1c[nH]cn1
[3]
  IC50: > 100 µM (inactive)

## Cc1cc(-c2sccc2C)nc(-n2cccc2)n1
[1]
  EC50: 7.5 µM (active)

## COc1ccc2c(c1)OC/C(=C/c1cccs1)C2=O
[3]
  IC50: 28.7 µM (active)

## COc1ccc(C(CNc2ccc(C(F)(F)F)cn2)N(C)C)cc1OC (configuration not stated)
[1]
  EC50: 0.299 µM (active)

## COc1cccc(C(=O)C2CCCN(Cc3cccn3-c3ccccn3)C2)c1 (configuration not stated)
[1]
  EC50: 6.68 µM (active)

## Fc1ccc(Cn2nnc(-c3ccc(CN4CCOCC4)cc3)n2)cc1
[3]
  IC50: 6.09 µM (active)

## COc1ccc(C2NC(C(=O)O)Cc3c2[nH]c2ccccc32)cc1CN1CCN(c2ccc(F)cc2)CC1 (configuration not stated)
[1]
  EC50: 0.531 µM (active)

## CCOC(=O)C1=C(CSc2nc(-c3ccccc3)ccc2C#N)OC(N)=C(C#N)C1c1ccccc1 (configuration not stated)
[3]
  IC50: > 100 µM (inactive)

## CC(C)c1noc2ncc(C(=O)c3cc(Cl)cc(Cl)c3O)cc12
[6]
  EC50: 3.63 µM (active)
[7]
  EC50: > 160 µM (inactive)

## CCOc1ccc(N2C(=O)c3cccnc3C2=O)cc1
[9]
  AC50: 7.94 µM (inconclusive)
[2]
  AC50: 0.178 µM (inconclusive)

## Cc1ccc(Cn2c(=N)n(CC(O)c3ccco3)c3ccccc32)cc1 (configuration not stated)
[1]
  EC50: 1.88 µM (active)

## CCCOc1ccc(Br)cc1/C=N/O
[1]
  EC50: 1.68 µM (active)

## CN(Cc1cnn(C)c1)C(=O)c1ccc(OC2CCN(CCc3ccccc3)CC2)cc1
[1]
  EC50: 1.5 µM (active)

## O=c1c2ccccc2nc(-c2ccc(Br)cc2)n1Cc1ccccc1
[2]
  AC50: 25.1 µM (inconclusive)

## Cc1ccc(S(=O)(=O)Nc2nc(C)c(NC(=O)Nc3ccc(Cl)cc3Cl)s2)cc1
[2]
  AC50: 28.2 µM (inconclusive)

## CCC1CCc2c(c3ccccc3[nH]c2=O)O1 (configuration not stated)
[10]
  AC50: 17.8 µM (inconclusive)
[2]
  AC50: 39.8 µM (inconclusive)

## CCOC(=O)c1oc2ccccc2c1CN1CCCCC1
[1]
  EC50: 4.22 µM (active)

## C=CCSc1nc(-c2ccc(OCCC)cc2)n[nH]1
[6]
  EC50: > 38 µM (not active)
[7]
  EC50: > 150 µM (inactive)

## COc1ccc(-n2c(=O)c(-c3cc(F)cc(F)c3)nc3cnc(N4CCOCC4)nc32)cc1
[8]
  AC50: 15.8 µM (inconclusive)
[11]
  AC50: 15.8 µM (inconclusive)
[2]
  AC50: 20 µM (inconclusive)

## COc1ccc2[nH]cc(CCNc3cc(-c4ccccc4C(F)(F)F)ncn3)c2c1
[9]
  AC50: 1 µM (inconclusive)
[2]
  AC50: 20 µM (inconclusive)

## O=C(CC(c1ccccc1)c1ccccc1)NCC1CCCO1 (configuration not stated)
[11]
  AC50: 22.4 µM (inconclusive)
[2]
  AC50: 11.2 µM (inconclusive)

## CN(C)CCN1C(=O)C2C(C(=O)Nc3cc(Cl)cc(Cl)c3)C3C=CC2(O3)C1C(=O)NC1CCCCC1 (configuration not stated)
[12]
  EC50: > 260 µM (inactive)
[1]
  EC50: 6.68 µM (active)

## CCOc1cc(-c2nc(-c3cc(OC)c(OC)c(OC)c3)no2)cc(OCC)c1OCC
[6]
  EC50: > 38 µM (not active)
[7]
  EC50: > 160 µM (inactive)
